# Measurements: patent publication US9637483B2, “Heterocyclic compound” (TAKEDA PHARMACEUTICAL COMPANY LIMITED, priority 2013, dated 2017)
# Key:
# Format in all cases: biochemical
# JAK1 = target: T1, JAK1 (Homo sapiens, UniProt P23458); test: JAK1 enzyme inhibition test (LANCE method); conditions: 1 μM test compound; for inhibition at 1 µM: read-out: JAK1 enzyme inhibitory activity (%, 1 μM)
# T1 construct: purchased Invitrogen
# Procedure, shortened: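 TR-FRET (LANCE) with ULight-JAK1 peptide (300 nM working solution) and ATP (150 μM working solution) in HEPES pH 7.5, MgCl2, EGTA, DTT buffer; 1 h at room temperature. EDTA stop plus Eu-anti-phosphotyrosine antibody, 665 nm read after 1 h. Inhibition relative to enzyme-free wells as 100%.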
# JAK2 = target: T2, JAK2 (Homo sapiens, UniProt O60674); test: JAK2 enzyme inhibition test (LANCE method); conditions: 1 μM test compound; read-out: JAK2 enzyme inhibitory activity (%, 1 μM)
# T2 construct: purchased Invitrogen
# T2 sequence (O60674 whole entry): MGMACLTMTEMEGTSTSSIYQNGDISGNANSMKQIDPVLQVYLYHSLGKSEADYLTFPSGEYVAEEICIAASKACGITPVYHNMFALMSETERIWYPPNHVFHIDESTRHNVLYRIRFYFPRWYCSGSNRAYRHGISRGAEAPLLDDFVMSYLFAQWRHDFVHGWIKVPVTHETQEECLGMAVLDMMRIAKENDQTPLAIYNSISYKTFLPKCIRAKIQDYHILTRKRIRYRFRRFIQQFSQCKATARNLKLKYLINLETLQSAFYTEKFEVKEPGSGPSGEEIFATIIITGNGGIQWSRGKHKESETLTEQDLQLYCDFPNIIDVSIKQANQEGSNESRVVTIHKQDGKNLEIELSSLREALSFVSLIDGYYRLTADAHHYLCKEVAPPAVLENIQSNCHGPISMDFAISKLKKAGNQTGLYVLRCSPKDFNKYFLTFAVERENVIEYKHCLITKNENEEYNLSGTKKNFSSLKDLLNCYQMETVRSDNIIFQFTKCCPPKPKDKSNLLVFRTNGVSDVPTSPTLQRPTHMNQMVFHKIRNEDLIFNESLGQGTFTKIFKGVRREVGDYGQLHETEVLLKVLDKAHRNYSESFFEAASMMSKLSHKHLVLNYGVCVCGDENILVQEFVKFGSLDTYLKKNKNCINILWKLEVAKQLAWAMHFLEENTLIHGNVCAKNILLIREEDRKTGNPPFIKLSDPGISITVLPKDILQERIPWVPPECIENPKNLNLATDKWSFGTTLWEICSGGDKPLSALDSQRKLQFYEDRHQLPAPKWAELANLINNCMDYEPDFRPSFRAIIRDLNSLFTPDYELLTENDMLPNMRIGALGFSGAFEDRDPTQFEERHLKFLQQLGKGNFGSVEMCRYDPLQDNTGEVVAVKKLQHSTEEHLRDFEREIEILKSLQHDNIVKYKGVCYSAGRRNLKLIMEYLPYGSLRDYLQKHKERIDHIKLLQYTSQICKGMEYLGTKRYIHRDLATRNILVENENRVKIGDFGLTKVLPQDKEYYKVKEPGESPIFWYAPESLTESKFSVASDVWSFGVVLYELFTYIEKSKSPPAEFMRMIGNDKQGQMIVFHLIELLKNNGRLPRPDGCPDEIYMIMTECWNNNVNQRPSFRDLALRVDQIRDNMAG
# Procedure, shortened: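 Recombinant JAK2 (6 ng/mL solution) phosphorylated ULight-JAK1 peptide (300 nM solution) with ATP (45 μM solution) in pH 7.5 HEPES/MgCl2/DTT buffer for 1 hr at room temperature. After EDTA stop and europium anti-phosphotyrosine antibody for 1 hr, TR-FRET read at 665 nm; inhibition relative to enzyme-free wells as 100%.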
# JAK3 = target: T3, JAK3 (Homo sapiens, UniProt P52333); test: JAK3 enzyme inhibition test (LANCE method); conditions: 1 μM test compound; for inhibition at 1 µM: read-out: JAK3 enzyme inhibitory activity (%, 1 μM)
# T3 construct: purchased Invitrogen
# T3 sequence (P52333 1-1124): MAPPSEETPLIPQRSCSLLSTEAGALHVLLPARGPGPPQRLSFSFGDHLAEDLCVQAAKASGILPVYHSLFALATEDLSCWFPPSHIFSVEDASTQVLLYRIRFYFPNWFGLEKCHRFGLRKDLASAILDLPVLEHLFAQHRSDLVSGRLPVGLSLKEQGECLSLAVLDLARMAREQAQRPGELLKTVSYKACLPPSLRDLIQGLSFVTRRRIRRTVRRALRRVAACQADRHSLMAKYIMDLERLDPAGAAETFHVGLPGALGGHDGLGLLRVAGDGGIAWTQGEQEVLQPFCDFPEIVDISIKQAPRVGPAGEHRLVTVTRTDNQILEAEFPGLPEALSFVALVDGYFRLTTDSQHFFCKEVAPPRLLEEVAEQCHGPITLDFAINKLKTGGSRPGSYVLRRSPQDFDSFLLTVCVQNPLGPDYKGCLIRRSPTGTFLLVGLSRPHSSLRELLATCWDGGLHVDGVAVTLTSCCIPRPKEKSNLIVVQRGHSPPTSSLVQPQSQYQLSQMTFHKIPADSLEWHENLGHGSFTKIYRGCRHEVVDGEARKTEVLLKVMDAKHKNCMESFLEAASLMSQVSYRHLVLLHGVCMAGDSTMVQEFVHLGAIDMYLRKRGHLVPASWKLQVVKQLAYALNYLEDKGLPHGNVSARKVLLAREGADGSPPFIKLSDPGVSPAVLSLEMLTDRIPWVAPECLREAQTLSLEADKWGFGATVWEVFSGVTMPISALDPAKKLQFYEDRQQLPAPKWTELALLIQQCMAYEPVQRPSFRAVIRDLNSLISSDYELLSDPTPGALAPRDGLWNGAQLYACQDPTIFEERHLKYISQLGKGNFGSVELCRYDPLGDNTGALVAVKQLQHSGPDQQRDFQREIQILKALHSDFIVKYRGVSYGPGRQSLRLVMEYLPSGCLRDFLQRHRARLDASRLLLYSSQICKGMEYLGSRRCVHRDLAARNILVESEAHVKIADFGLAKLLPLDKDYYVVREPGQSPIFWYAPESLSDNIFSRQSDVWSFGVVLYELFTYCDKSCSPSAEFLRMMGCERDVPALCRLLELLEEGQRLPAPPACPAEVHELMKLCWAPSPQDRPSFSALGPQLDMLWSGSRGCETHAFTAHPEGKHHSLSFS
# Procedure, shortened: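 Recombinant JAK3 (12 ng/mL solution) with ULight-JAK1 peptide (300 nM solution) and ATP (15 μM solution) in HEPES pH 7.5 buffer, 1 h at room temperature. EDTA stop with Eu-anti-phosphotyrosine antibody; TR-FRET at 665 nm. Inhibition relative to enzyme-free wells as 100%.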
# TYK2 = target: T4, TYK2 (Homo sapiens, UniProt P29597); test: TYK2 enzyme inhibition test (LANCE method); conditions: 1 μM test compound; read-out: TYK2 enzyme inhibitory activity (%, 1 μM)
# T4 construct: purchased Invitrogen
# T4 sequence (P29597 whole entry): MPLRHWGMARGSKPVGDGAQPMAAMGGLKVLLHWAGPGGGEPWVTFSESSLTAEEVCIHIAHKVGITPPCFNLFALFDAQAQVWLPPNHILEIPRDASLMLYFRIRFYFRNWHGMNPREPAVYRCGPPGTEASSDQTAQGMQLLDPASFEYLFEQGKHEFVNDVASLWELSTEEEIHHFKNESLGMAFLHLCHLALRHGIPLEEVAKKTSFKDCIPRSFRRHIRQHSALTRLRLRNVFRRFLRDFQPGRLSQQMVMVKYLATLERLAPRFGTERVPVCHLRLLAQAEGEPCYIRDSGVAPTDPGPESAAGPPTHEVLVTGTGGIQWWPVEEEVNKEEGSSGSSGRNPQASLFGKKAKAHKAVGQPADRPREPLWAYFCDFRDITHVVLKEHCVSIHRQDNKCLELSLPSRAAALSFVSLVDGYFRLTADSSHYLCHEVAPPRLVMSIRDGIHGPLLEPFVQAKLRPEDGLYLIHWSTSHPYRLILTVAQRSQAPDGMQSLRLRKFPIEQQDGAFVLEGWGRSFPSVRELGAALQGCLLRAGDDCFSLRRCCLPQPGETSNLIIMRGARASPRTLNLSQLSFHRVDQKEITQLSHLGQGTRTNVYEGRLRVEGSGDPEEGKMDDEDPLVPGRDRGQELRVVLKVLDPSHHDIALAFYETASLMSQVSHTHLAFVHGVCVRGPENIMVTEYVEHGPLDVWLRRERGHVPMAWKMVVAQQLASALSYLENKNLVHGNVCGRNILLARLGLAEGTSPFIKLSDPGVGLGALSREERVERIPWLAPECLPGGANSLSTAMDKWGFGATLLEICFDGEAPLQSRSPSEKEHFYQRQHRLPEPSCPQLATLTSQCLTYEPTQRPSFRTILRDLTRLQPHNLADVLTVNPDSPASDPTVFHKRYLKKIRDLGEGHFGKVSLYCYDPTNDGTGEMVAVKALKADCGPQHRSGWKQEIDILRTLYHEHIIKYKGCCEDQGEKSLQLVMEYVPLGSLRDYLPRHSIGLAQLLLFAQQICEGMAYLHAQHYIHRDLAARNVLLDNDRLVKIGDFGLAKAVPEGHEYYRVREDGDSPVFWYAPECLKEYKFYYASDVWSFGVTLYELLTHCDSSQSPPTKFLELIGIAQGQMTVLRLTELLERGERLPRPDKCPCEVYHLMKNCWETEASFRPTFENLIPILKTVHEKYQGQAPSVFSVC
# Procedure, shortened: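 Recombinant TYK2 (375 ng/mL working solution) with ULight-JAK1 peptide (300 nM working solution) and ATP (30 μM working solution) in HEPES pH 7.5 buffer with MgCl2, EGTA, DTT, Tween20, BSA, reacted 1 h at RT. EDTA-stopped, Eu-anti-phosphotyrosine TR-FRET read at 665 nm; inhibition relative to enzyme-free wells as 100%.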
# T1 sequence (P23458 whole entry): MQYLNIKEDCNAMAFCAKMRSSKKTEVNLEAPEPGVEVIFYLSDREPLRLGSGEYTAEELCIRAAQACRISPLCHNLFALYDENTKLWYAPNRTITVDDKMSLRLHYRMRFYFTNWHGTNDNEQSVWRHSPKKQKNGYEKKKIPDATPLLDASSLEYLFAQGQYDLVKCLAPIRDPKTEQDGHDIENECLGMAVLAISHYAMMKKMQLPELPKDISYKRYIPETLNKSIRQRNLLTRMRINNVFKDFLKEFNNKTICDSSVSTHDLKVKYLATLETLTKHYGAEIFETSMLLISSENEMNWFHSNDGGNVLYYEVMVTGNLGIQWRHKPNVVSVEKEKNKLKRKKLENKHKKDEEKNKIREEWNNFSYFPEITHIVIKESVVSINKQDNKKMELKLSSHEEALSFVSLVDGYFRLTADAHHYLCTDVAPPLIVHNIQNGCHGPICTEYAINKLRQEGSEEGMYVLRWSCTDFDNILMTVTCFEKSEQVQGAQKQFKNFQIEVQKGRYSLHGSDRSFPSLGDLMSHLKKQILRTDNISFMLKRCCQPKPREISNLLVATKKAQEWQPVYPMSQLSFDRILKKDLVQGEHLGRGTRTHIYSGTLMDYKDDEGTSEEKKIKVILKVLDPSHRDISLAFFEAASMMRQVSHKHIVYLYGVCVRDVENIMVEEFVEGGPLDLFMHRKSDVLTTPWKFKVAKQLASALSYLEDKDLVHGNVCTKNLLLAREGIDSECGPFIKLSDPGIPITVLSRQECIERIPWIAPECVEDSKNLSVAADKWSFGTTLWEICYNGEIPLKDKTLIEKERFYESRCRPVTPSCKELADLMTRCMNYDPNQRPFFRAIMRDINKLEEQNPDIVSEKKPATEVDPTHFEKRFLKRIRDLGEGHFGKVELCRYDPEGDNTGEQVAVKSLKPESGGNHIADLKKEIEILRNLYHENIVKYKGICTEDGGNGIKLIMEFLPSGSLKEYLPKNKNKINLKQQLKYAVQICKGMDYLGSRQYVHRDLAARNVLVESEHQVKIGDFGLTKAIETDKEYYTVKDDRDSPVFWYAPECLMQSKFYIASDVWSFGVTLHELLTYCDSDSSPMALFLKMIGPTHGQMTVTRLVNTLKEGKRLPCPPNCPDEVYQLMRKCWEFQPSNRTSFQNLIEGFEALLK
inhibition at 1 µM (JAK1) [%],inhibition at 1 µM (JAK2) [%],inhibition at 1 µM (JAK3) [%],inhibition at 1 µM (TYK2) [%],"JAK1 enzyme inhibitory activity (%, 1 μM) (JAK1; 1 µM) [%]","JAK3 enzyme inhibitory activity (%, 1 μM) (JAK3; 1 µM) [%]",Structure (SMILES)
97,94,95,100,,,"CN(c1cc(-c2cn(-c3c(F)cccc3C#N)c(=O)c3c(N)n[nH]c23)nn1C)C1CCCC1 [Example 123, 2-(3-amino-7-(5-(cyclopentyl(methyl)amino)-1-methyl-1H-pyrazol-3-yl)-4-oxo-1,4-dihydro-5H-pyrazolo[4,3-c]pyridin-5-yl)-3-fluorobenzonitrile]"
99,99,100,101,,,"CO[C@]1(c2cc(-c3cn(-c4c(F)cccc4F)c(=O)c4c(N)n[nH]c34)nn2C)C[C@H](C(=O)N(C)C)C1 [Example 124, cis-3-(3-(3-amino-5-(2,6-difluorophenyl)-4-oxo-4,5-dihydro-1H-pyrazolo[4,3-c]pyridin-7-yl)-1-methyl-1H-pyrazol-5-yl)-3-methoxy-N,N-dimethylcyclobutanecarboxamide]"
98,98,99,99,,,"CN(C)[C@@H]1CCN(c2cc(-c3cn(-c4c(F)cccc4F)c(=O)c4c(N)n[nH]c34)nn2C)C1 [Example 125, 3-amino-5-(2,6-difluorophenyl)-7-(5-((3R)-3-(dimethylamino)pyrrolidin-1-yl)-1-methyl-1H-pyrazol-3-yl)-1,5-dihydro-4H-pyrazolo[4,3-c]pyridin-4-one]"
92,98,99,98,,,"CN(C)C[C@H]1CCCN1c1cc(-c2cn(-c3c(F)cccc3F)c(=O)c3c(N)n[nH]c23)nn1C [Example 126, 3-amino-5-(2,6-difluorophenyl)-7-(5-((2R)-2-((dimethylamino)methyl)pyrrolidin-1-yl)-1-methyl-1H-pyrazol-3-yl)-1,5-dihydro-4H-pyrazolo[4,3-c]pyridin-4-one]"
99,99,100,100,,,"Cn1nc(-c2cn(-c3c(F)cccc3F)c(=O)c3c(N)n[nH]c23)cc1N1CCC(C)(C#N)CC1 [Example 127, 1-(3-(3-amino-5-(2,6-difluorophenyl)-4-oxo-4,5-dihydro-1H-pyrazolo[4,3-c]pyridin-7-yl)-1-methyl-1H-pyrazol-5-yl)-4-methylpiperidine-4-carbonitrile]"
98,98,99,100,,,"COC[C@H]1CCCN1c1cc(-c2cn(-c3c(F)cccc3F)c(=O)c3c(N)n[nH]c23)nn1C [Example 128, 3-amino-5-(2,6-difluorophenyl)-7-(5-((2R)-2-(methoxymethyl)pyrrolidin-1-yl)-1-methyl-1H-pyrazol-3-yl)-1,5-dihydro-4H-pyrazolo[4,3-c]pyridin-4-one]"
97,99,99,100,,,"COC1(c2cc(-c3cn(-c4c(F)cccc4F)c(=O)c4c(N)n[nH]c34)nn2C)CCS(=O)(=O)CC1 [Example 129, 3-amino-5-(2,6-difluorophenyl)-7-(5-(4-methoxy-1,1-dioxidotetrahydro-2H-thiopyran-4-yl)-1-methyl-1H-pyrazol-3-yl)-1,5-dihydro-4H-pyrazolo[4,3-c]pyridin-4-one]"
96,98,99,101,,,"COC1(c2cc(-c3cn(-c4c(F)cccc4F)c(=O)c4c(N)n[nH]c34)nn2C)CN(C(=O)C(C)C)C1 [Example 130, 3-amino-5-(2,6-difluorophenyl)-7-(5-(1-isobutyryl-3-methoxyazetidin-3-yl)-1-methyl-1H-pyrazol-3-yl)-1,5-dihydro-4H-pyrazolo[4,3-c]pyridin-4-one]"
95,98,99,100,,,"COC1(c2cc(-c3cn(-c4c(F)cccc4F)c(=O)c4c(N)n[nH]c34)nn2C)CN(C(C)=O)C1 [Example 131, 7-(5-(1-acetyl-3-methoxyazetidin-3-yl)-1-methyl-1H-pyrazol-3-yl)-3-amino-5-(2,6-difluorophenyl)-1,5-dihydro-4H-pyrazolo[4,3-c]pyridin-4-one]"
94,98,99,100,,,"COC1(c2cc(-c3cn(-c4c(F)cccc4F)c(=O)c4c(N)n[nH]c34)nn2C)CN(S(C)(=O)=O)C1 [Example 132, 3-amino-5-(2,6-difluorophenyl)-7-(5-(3-methoxy-1-(methylsulfonyl)azetidin-3-yl)-1-methyl-1H-pyrazol-3-yl)-1,5-dihydro-4H-pyrazolo[4,3-c]pyridin-4-one]"
91,87,96,99,,,"C[C@H](C1CC1)n1cc(-c2cc(N3CCC(C)(O)CC3)n(C)n2)c2[nH]nc(N)c2c1=O [Example 133, 3-amino-5-((1R)-1-cyclopropylethyl)-7-(5-(4-hydroxy-4-methylpiperidin-1-yl)-1-methyl-1H-pyrazol-3-yl)-1,5-dihydro-4H-pyrazolo[4,3-c]pyridin-4-one]"
97,98,99,99,,,"CC(C)[C@H](C)n1cc(-c2cc(N(C)C3CCCC3)n(C)n2)c2[nH]nc(N)c2c1=O [Example 134, 3-amino-7-(5-(cyclopentyl(methyl)amino)-1-methyl-1H-pyrazol-3-yl)-5-((2S)-3-methylbutan-2-yl)-1,5-dihydro-4H-pyrazolo[4,3-c]pyridin-4-one]"
96,98,99,100,,,"COC[C@H]1CCCN1c1cc(-c2cn([C@@H](C)C(C)C)c(=O)c3c(N)n[nH]c23)nn1C [Example 135, 3-amino-7-(5-((2R)-2-(methoxymethyl)pyrrolidin-1-yl)-1-methyl-1H-pyrazol-3-yl)-5-((2S)-3-methylbutan-2-yl)-1,5-dihydro-4H-pyrazolo[4,3-c]pyridin-4-one]"
80,98,98,100,,,"COC1(c2cc(-c3cn([C@@H](C)C(C)C)c(=O)c4c(N)n[nH]c34)nn2C)CN(S(=O)(=O)C(C)C)C1 [Example 136, 3-amino-7-(5-(1-(isopropylsulfonyl)-3-methoxyazetidin-3-yl)-1-methyl-1H-pyrazol-3-yl)-5-((2S)-3-methylbutan-2-yl)-1,5-dihydro-4H-pyrazolo[4,3-c]pyridin-4-one]"
,99,,99,92,98,"COC1(c2cc(-c3cn(C(C#N)C(C)C)c(=O)c4c(N)n[nH]c34)nn2C)CCC(F)(F)CC1 (stereo not drawn) [Example 137, 2-(3-amino-7-(5-(4,4-difluoro-1-methoxycyclohexyl)-1-methyl-1H-pyrazol-3-yl)-4-oxo-1,4-dihydro-5H-pyrazolo[4,3-c]pyridin-5-yl)-3-methylbutanenitrile]"
